Data from patent US9340590B2 (priority 2011, dated 2016).
Positions of bridges follow the written chain, without caps; N, C: chain ends. Non-standard residues stand in square brackets, D forms with d. Residues, ends and D or L forms follow the SMILES beside them. *: point of attachment. Pent4ynoyl = C#CCCC(=O)*; Nva = CCC[C@H](N)C(=O)O; Abu = CC[C@H](N)C(=O)O

Key:
Test in all cases: cell-based
hNav1.7 = hNav1.7 (Homo sapiens, UniProt Q15858); format: cell-based; settings: IonWorks Quattro, use-dependent block, hNav1.7; read-out: IWQ Use Nav1.7
hNav1.5 = hNav1.5 (Homo sapiens, UniProt Q14524); settings: IonWorks Quattro, use-dependent block, hNav1.5; read-out: IWQ Use Nav1.5
hNav1.3 = hNav1.3 (Homo sapiens, UniProt Q9NY46); settings: IonWorks Quattro, use-dependent block, hNav1.3; read-out: IWQ Use Nav1.3

hNav1.5, sequence (Q14524 whole entry, looked up): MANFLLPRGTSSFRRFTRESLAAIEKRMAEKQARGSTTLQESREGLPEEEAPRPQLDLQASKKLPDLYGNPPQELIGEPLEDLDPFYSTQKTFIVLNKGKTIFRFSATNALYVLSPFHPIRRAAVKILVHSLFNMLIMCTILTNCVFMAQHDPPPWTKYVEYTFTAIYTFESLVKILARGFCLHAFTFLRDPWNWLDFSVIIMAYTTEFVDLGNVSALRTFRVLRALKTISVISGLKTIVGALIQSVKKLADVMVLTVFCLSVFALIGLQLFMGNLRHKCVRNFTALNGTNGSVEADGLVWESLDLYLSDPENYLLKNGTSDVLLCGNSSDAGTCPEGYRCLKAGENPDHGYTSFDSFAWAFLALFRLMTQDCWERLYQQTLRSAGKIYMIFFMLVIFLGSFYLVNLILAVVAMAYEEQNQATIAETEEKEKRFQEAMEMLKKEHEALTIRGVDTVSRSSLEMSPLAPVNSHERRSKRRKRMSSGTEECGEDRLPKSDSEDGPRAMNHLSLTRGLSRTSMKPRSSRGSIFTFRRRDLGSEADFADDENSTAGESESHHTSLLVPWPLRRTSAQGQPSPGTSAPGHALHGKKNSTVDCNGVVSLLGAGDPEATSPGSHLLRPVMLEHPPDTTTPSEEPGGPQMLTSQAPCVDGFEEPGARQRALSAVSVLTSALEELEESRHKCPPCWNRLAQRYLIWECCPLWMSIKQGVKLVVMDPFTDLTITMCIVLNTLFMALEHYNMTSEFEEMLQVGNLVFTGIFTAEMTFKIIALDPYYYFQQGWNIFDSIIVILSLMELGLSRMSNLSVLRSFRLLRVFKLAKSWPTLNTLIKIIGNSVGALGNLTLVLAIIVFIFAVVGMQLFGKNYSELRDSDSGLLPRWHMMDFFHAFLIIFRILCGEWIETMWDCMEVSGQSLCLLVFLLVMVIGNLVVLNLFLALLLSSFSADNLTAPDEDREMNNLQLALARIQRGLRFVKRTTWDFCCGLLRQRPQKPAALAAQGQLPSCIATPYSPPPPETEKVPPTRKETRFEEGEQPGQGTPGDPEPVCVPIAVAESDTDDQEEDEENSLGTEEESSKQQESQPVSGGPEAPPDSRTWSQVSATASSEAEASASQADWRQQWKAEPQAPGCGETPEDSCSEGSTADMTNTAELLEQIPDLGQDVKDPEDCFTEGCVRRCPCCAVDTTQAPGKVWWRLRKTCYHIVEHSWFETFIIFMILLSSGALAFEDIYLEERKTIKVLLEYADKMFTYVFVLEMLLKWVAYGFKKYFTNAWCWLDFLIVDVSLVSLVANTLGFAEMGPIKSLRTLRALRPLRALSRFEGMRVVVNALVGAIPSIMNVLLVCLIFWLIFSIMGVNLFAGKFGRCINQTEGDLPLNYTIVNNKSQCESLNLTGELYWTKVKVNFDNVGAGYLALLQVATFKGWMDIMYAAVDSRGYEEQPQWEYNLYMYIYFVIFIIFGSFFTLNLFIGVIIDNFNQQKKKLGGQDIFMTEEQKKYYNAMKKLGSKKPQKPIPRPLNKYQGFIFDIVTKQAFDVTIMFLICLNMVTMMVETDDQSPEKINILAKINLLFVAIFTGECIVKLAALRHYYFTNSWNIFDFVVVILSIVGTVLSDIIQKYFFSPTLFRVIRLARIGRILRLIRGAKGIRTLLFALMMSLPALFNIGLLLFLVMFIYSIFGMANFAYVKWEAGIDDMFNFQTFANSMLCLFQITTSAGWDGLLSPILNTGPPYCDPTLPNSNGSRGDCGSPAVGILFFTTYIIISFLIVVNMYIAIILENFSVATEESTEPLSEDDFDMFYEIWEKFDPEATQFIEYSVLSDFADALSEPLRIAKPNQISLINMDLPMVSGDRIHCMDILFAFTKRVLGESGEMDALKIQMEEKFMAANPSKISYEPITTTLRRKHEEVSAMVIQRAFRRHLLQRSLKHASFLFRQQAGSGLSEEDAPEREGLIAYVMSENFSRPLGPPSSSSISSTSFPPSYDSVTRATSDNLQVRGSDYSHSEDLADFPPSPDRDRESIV
hNav1.7, sequence (Q15858 whole entry, looked up): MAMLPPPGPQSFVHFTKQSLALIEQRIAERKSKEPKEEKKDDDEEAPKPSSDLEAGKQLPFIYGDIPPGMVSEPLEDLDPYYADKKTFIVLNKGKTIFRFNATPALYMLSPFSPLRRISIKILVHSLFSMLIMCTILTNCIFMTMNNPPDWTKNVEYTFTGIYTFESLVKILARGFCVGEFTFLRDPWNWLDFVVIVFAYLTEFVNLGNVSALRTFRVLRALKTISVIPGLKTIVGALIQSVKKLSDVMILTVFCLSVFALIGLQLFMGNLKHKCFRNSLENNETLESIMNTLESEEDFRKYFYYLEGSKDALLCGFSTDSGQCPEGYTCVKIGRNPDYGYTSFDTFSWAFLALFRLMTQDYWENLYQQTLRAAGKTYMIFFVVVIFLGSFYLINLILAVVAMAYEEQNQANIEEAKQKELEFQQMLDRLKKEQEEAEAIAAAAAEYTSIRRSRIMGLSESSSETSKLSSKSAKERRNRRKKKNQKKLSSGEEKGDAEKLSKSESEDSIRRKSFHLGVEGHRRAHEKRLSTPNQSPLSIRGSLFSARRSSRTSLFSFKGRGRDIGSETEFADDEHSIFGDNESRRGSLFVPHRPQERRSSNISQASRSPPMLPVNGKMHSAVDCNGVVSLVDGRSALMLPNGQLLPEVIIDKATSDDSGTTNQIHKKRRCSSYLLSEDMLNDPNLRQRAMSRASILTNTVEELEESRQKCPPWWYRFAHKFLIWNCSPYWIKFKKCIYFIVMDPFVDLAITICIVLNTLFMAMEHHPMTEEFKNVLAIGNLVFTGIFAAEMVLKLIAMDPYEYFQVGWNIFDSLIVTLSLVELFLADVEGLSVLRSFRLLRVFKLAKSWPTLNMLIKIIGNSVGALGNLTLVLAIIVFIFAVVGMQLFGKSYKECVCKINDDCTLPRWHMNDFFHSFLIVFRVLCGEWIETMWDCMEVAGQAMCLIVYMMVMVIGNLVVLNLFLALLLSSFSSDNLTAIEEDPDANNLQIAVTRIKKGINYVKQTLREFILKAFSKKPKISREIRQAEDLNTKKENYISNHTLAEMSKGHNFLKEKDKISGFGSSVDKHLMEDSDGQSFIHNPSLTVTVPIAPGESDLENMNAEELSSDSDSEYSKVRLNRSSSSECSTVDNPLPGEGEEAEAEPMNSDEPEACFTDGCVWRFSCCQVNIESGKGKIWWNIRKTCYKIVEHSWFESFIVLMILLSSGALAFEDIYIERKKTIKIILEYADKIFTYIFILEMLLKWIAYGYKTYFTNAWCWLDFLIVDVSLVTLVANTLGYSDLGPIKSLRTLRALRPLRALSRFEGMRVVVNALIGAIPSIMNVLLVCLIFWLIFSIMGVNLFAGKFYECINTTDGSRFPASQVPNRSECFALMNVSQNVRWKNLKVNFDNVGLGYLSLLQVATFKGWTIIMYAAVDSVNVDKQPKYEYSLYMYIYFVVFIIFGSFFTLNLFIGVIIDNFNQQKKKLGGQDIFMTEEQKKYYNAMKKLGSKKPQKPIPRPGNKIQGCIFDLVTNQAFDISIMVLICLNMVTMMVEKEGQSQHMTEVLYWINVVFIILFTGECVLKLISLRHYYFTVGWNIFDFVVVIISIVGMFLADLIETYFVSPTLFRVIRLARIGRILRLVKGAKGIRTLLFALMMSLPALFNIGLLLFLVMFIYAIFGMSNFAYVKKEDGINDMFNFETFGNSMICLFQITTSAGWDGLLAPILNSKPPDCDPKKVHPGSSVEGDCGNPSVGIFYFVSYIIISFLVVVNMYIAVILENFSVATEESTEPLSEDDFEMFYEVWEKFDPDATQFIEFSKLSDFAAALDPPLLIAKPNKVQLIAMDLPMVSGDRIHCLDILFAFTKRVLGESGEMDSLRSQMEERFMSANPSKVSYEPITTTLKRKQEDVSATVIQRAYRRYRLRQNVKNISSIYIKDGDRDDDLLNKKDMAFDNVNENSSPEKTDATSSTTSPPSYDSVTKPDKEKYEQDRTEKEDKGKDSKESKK

Row | Structure (SMILES) | IC50 (hNav1.7) [nM] | IC50 (hNav1.5) [nM] | IC50 (hNav1.3) [nM]
1 | C#CC[C@@H]1NC(=O)[C@@H]2CCCN2C(=O)[C@H]([C@@H](C)CC)NC(=O)[C@@H]2CSSC[C@@H]3NC(=O)[C@H](C(C)C)NC(=O)[C@H](CC(C)C)NC(=O)[C@H](CC(N)=O)NC(=O)[C@@H]4CCCN4C(=O)[C@H](CCCNC(=N)N)NC(=O)[C@H](CSSC[C@H](NC(=O)[C@@H](N)CC(=O)O)C(=O)N[C@@H](CC(C)C)C(=O)NCC(=O)N[C@@H](C)C(=O)N[C@@H](Cc4ccccc4)C(=O)N[C@@H](CCCNC(=N)N)C(=O)N[C@@H](CCCCN)C(=O)N2)NC(=O)[C@H](CSSC[C@@H](C(=O)N[C@@H](CCCCN)C(=O)N[C@@H](Cc2ccc(O)cc2)C(=O)N[C@H](C(=O)N[C@@H](Cc2ccccc2)C(N)=O)C(C)C)NC(=O)[C@H](Cc2c[nH]c4ccccc24)NC(=O)[C@H](CCCNC(=N)N)NC(=O)[C@H](Cc2c[nH]cn2)NC(=O)[C@H](CC(C)C)NC(=O)[C@H](CCCNC(=N)N)NC(=O)[C@H](CO)NC3=O)NC(=O)[C@H](CCCCN)NC(=O)[C@H](CC(=O)O)NC(=O)[C@H](CC(N)=O)NC1=O [compound 803] | 130 | 36500 | 120
2 | C#CCCC(=O)NCCCC[C@@H]1NC(=O)[C@H](CC(=O)O)NC(=O)[C@@H]2CCCN2C(=O)[C@H]([C@@H](C)CC)NC(=O)[C@@H]2CSSC[C@@H]3NC(=O)[C@H](C(C)C)NC(=O)[C@H](CC(C)C)NC(=O)[C@H](CC(N)=O)NC(=O)[C@@H]4CCCN4C(=O)[C@H](CCCNC(=N)N)NC(=O)[C@H](CSSC[C@H](NC(=O)[C@@H](N)CC(=O)O)C(=O)N[C@@H](CC(C)C)C(=O)NCC(=O)N[C@@H](CC)C(=O)N[C@@H](Cc4ccccc4)C(=O)N[C@@H](CCCNC(=N)N)C(=O)N[C@@H](CCCCN)C(=O)N2)NC(=O)[C@H](CSSC[C@@H](C(=O)N[C@@H](CCCCN)C(=O)N[C@@H](Cc2ccc(O)cc2)C(=O)N[C@H](C(=O)N[C@@H](Cc2ccccc2)C(N)=O)C(C)C)NC(=O)[C@H](Cc2c[nH]c4ccccc24)NC(=O)[C@H](CCCCN)NC(=O)[C@H](Cc2c[nH]cn2)NC(=O)[C@H]([C@@H](C)O)NC(=O)[C@H](CCCNC(=N)N)NC(=O)[C@H](CO)NC3=O)NC(=O)[C@H](CCCCN)NC(=O)[C@H](CC(=O)O)NC1=O [compound 804] (H-DCLG[Abu]FRKCIPDK(Pent4ynoyl)DKCCRPNLVCSRTHKWCKYVF-NH2; disulfide 2-17, 9-23, 16-30) | 500 | > 50000 | 350
3 | C#CCCC(=O)NCCCC[C@@H]1NC(=O)[C@H](CC(=O)O)NC(=O)[C@@H]2CCCN2C(=O)[C@H]([C@@H](C)CC)NC(=O)[C@@H]2CSSC[C@@H]3NC(=O)[C@H](C(C)C)NC(=O)[C@H](CC(C)C)NC(=O)[C@H](CC(N)=O)NC(=O)[C@@H]4CCCN4C(=O)[C@H](CCCNC(=N)N)NC(=O)[C@H](CSSC[C@H](NC(=O)[C@@H](N)CC(=O)O)C(=O)N[C@@H](CC(C)C)C(=O)NCC(=O)N[C@@H](CCC)C(=O)N[C@@H](CC(C)C)C(=O)N[C@@H](CCCNC(=N)N)C(=O)N[C@@H](CCCCN)C(=O)N2)NC(=O)[C@H](CSSC[C@@H](C(=O)N[C@@H](CCCCN)C(=O)N[C@@H](Cc2ccc(O)cc2)C(=O)N[C@H](C(=O)N[C@@H](Cc2ccccc2)C(N)=O)C(C)C)NC(=O)[C@H](Cc2c[nH]c4ccccc24)NC(=O)[C@H](CCCNC(=N)N)NC(=O)[C@H](Cc2c[nH]cn2)NC(=O)[C@H]([C@@H](C)O)NC(=O)[C@H](CCCNC(=N)N)NC(=O)[C@H](CO)NC3=O)NC(=O)[C@H](CCCCN)NC(=O)[C@H](CC(=O)O)NC1=O [compound 805] (H-DCLG[Nva]LRKCIPDK(Pent4ynoyl)DKCCRPNLVCSRTHRWCKYVF-NH2; disulfide 2-17, 9-23, 16-30) | 310 | 37500 | 270
4 | C#CCCC(=O)NCCCC[C@@H]1NC(=O)[C@H](CC(=O)O)NC(=O)[C@@H]2CCCN2C(=O)[C@H]([C@@H](C)CC)NC(=O)[C@@H]2CSSC[C@@H]3NC(=O)[C@H](C(C)C)NC(=O)[C@H](CC(C)C)NC(=O)[C@H](CC(N)=O)NC(=O)[C@@H]4CCCN4C(=O)[C@H](CCCNC(=N)N)NC(=O)[C@H](CSSC[C@H](NC(=O)[C@@H](N)CC(=O)O)C(=O)N[C@@H](CC(C)C)C(=O)NCC(=O)N[C@@H](CCC)C(=O)N[C@@H](CC(C)C)C(=O)N[C@@H](CCCNC(=N)N)C(=O)N[C@@H](CCCCN)C(=O)N2)NC(=O)[C@H](CSSC[C@@H](C(=O)N[C@@H](CCCCN)C(=O)N[C@@H](Cc2ccc(O)cc2)C(=O)N[C@H](C(=O)N[C@@H](Cc2ccccc2)C(N)=O)C(C)C)NC(=O)[C@H](Cc2c[nH]c4ccccc24)NC(=O)[C@H](CCCCN)NC(=O)[C@H](Cc2c[nH]cn2)NC(=O)[C@H]([C@@H](C)O)NC(=O)[C@H](CCCNC(=N)N)NC(=O)[C@H](CO)NC3=O)NC(=O)[C@H](CCCCN)NC(=O)[C@H](CC(=O)O)NC1=O [compound 806] (H-DCLG[Nva]LRKCIPDK(Pent4ynoyl)DKCCRPNLVCSRTHKWCKYVF-NH2; disulfide 2-17, 9-23, 16-30) | 290 | 34200 | 390
5 | C#CCCC(=O)N[C@@H](CC(=O)O)C(=O)N[C@H]1CSSC[C@@H]2NC(=O)[C@@H]3CSSC[C@@H](C(=O)N[C@@H](CCCCN)C(=O)N[C@@H](Cc4ccc(O)cc4)C(=O)N[C@H](C(=O)N[C@@H](Cc4ccccc4)C(N)=O)C(C)C)NC(=O)[C@H](Cc4c[nH]c5ccccc45)NC(=O)[C@H](CCCNC(=N)N)NC(=O)[C@H](Cc4c[nH]cn4)NC(=O)[C@H]([C@@H](C)O)NC(=O)[C@H](CCCNC(=N)N)NC(=O)[C@H](CO)NC(=O)[C@H](CSSC[C@H](NC(=O)[C@H](CCCCN)NC(=O)[C@H](CCCNC(=N)N)NC(=O)[C@H](CC(C)C)NC(=O)[C@H](CC)NC(=O)CNC(=O)[C@H](CC(C)C)NC1=O)C(=O)N[C@@H]([C@@H](C)CC)C(=O)N1CCC[C@H]1C(=O)N[C@@H](CC(=O)O)C(=O)N[C@@H](CC)C(=O)N[C@@H](CC(=O)O)C(=O)N[C@@H](CCCCN)C(=O)N3)NC(=O)[C@H](C(C)C)NC(=O)[C@H](CC(C)C)NC(=O)[C@H](CC(N)=O)NC(=O)[C@@H]1CCCN1C(=O)[C@H](CCCNC(=N)N)NC2=O [compound 807] (Pent4ynoyl-DCLG[Abu]LRKCIPD[Abu]DKCCRPNLVCSRTHRWCKYVF-NH2; disulfide 2-17, 9-23, 16-30) | 540 | 36800 | 900
6 | C#CCCC(=O)NCCCC[C@@H]1NC(=O)[C@H](CC(=O)O)NC(=O)[C@@H]2CCCN2C(=O)[C@H]([C@@H](C)CC)NC(=O)[C@@H]2CSSC[C@@H]3NC(=O)[C@H](C(C)C)NC(=O)[C@H](CC(C)C)NC(=O)[C@H](CC(N)=O)NC(=O)[C@@H]4CCCN4C(=O)[C@H](CCCNC(=N)N)NC(=O)[C@H](CSSC[C@H](NC(=O)[C@@H](N)CC(=O)O)C(=O)N[C@@H](CC(C)C)C(=O)NCC(=O)N[C@@H](CC)C(=O)N[C@@H](CC(C)C)C(=O)N[C@@H](CCCNC(=N)N)C(=O)N[C@@H](CCCCN)C(=O)N2)NC(=O)[C@H](CSSC[C@@H](C(=O)N[C@@H](CCCCN)C(=O)N[C@@H](Cc2ccc(O)cc2)C(=O)N[C@H](C(=O)N[C@@H](Cc2ccccc2)C(N)=O)C(C)C)NC(=O)[C@H](Cc2c[nH]c4ccccc24)NC(=O)[C@H](CCC(=O)O)NC(=O)[C@H](Cc2c[nH]cn2)NC(=O)[C@H]([C@@H](C)O)NC(=O)[C@H](CCCNC(=N)N)NC(=O)[C@H](CO)NC3=O)NC(=O)[C@H](CCCCN)NC(=O)[C@H](CC(=O)O)NC1=O [compound 808] (H-DCLG[Abu]LRKCIPDK(Pent4ynoyl)DKCCRPNLVCSRTHEWCKYVF-NH2; disulfide 2-17, 9-23, 16-30) | 1800 | > 5000 | 4100
7 | CC[C@H](C)[C@@H]1NC(=O)[C@@H]2CSSC[C@@H]3NC(=O)[C@H](C(C)C)NC(=O)[C@H](CC(C)C)NC(=O)[C@H](CC(N)=O)NC(=O)[C@@H]4CCCN4C(=O)[C@H](CCCNC(=N)N)NC(=O)[C@H](CSSC[C@H](NC(=O)[C@H](CC(=O)O)NC(=O)[C@H](CO)NC(=O)CN)C(=O)N[C@@H](CC(C)C)C(=O)NCC(=O)N[C@@H](C)C(=O)N[C@@H](Cc4ccccc4)C(=O)N[C@@H](CCCNC(=N)N)C(=O)N[C@@H](CCCCN)C(=O)N2)NC(=O)[C@H](CSSC[C@@H](C(=O)N[C@@H](CCCCN)C(=O)N[C@@H](Cc2ccc(O)cc2)C(=O)N[C@H](C(=O)N[C@@H](Cc2ccccc2)C(N)=O)C(C)C)NC(=O)[C@H](Cc2c[nH]c4ccccc24)NC(=O)[C@H](CCCNC(=N)N)NC(=O)[C@H](Cc2c[nH]cn2)NC(=O)[C@H]([C@@H](C)O)NC(=O)[C@H](CCCNC(=N)N)NC(=O)[C@H](CO)NC3=O)NC(=O)[C@H](CCCCN)NC(=O)[C@H](CC(=O)O)NC(=O)[C@H](CC(N)=O)NC(=O)[C@H](CC(=O)O)NC(=O)[C@@H]2CCCN2C1=O [compound 811] (H-GSDCLGAFRKCIPDNDKCCRPNLVCSRTHRWCKYVF-NH2; disulfide 4-19, 11-25, 18-32) | 300 | > 5000 | 300
8 | CC[C@H](C)[C@@H]1NC(=O)[C@@H]2CSSC[C@@H]3NC(=O)[C@H](C(C)C)NC(=O)[C@H](CC(C)C)NC(=O)[C@H](CC(N)=O)NC(=O)[C@@H]4CCCN4C(=O)[C@H](CCCNC(=N)N)NC(=O)[C@H](CSSC[C@H](NC(=O)[C@H](CC(=O)O)NC(=O)[C@H](CO)NC(=O)CN)C(=O)N[C@@H](CC(C)C)C(=O)NCC(=O)N[C@@H](C)C(=O)N[C@@H](CC(C)C)C(=O)N[C@@H](CCCNC(=N)N)C(=O)N[C@@H](CCCCN)C(=O)N2)NC(=O)[C@H](CSSC[C@@H](C(=O)N[C@@H](CCCCN)C(=O)N[C@@H](Cc2ccc(O)cc2)C(=O)N[C@H](C(=O)N[C@@H](Cc2ccccc2)C(N)=O)C(C)C)NC(=O)[C@H](Cc2c[nH]c4ccccc24)NC(=O)[C@H](CCCNC(=N)N)NC(=O)[C@H](Cc2c[nH]cn2)NC(=O)[C@H]([C@@H](C)O)NC(=O)[C@H](CCCNC(=N)N)NC(=O)[C@H](CO)NC3=O)NC(=O)[C@H](CCCCN)NC(=O)[C@H](CC(=O)O)NC(=O)[C@H](CC(N)=O)NC(=O)[C@H](CC(=O)O)NC(=O)[C@@H]2CCCN2C1=O [compound 812] (H-GSDCLGALRKCIPDNDKCCRPNLVCSRTHRWCKYVF-NH2; disulfide 4-19, 11-25, 18-32) | 200 | > 5000 | 200
